In this test the test system is CEM cells HIV-1 protection, formazan growth assay. Nature of the test: NCI AIDS Antiviral Assay. The conditions noted are these: for IC50: measured here: growth of uninfected CEM cells. In a few lines:
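Protection of CEM cells against HIV-1 was scored from cell growth (soluble formazan) across five concentrations, with parallel uninfected cells. Lack of protection may reflect toxicity.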

The source made the active and inactive calls.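 The calls were made as follows: active = compounds giving half or more protection of infected cells from virus-caused growth loss, again on retest; inactive = the rest.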

For orientation: EC50 means the concentration that produces a half-maximal response. Broadly, the IC50 is the point on the concentration scale where inhibition reaches its midpoint. Low values mean inhibition by little substance, high ones a need for much substance. With `C=CCc1cc(OC)c2c(c1)C(O)CC(c1ccc(OC)c(OC)c1)O2` (centres undefined), the EC50 was above 263 µM and the IC50 was above 263 µM.

With `C=CCCCCCCCCCC(C(=O)O)C(=O)O`, the EC50 is above 977 µM and the IC50 was 550 µM.

Take `COC(=O)/C=C\C(C#N)(C#N)N=Cc1sccc1C`: the EC50 is 0.11 µM and the IC50 came to 0.398 µM.

As for `O=C(O)[C@H](NS(=O)(=O)c1ccc(F)cc1)c1ccccc1`, the result was inactive.

In the case of `O=S(=O)([O-])[O-].O=c1[nH]cnc2[nH]ncc12.O=c1[nH]cnc2[nH]ncc12.[Zn+2]`, the EC50 is above 209 µM and the 50% inhibitory concentration (IC50) was found to be 155 µM.

On to `COC(=O)c1c(C(=O)OC)c(C(c2ccccc2)c2ccccc2)n(-c2ccccc2)c1Cl`, for which the EC50 is above 200 µM and the IC50 amounted to 64.6 µM.

On to `O=C(O)c1ccc(CS(=O)(=O)c2ccc(Cl)cc2)c([N+](=O)[O-])c1`, for which the EC50 is above 708 µM and the IC50 is 324 µM.

With `C=C[C@H]1[C@@H]2CCC3=CC(=O)CC[C@@H]3C2CC[C@]1(C)C(=O)O` (some centres undefined), the EC50 is above 200 µM and the IC50 was above 200 µM.

With `CN1c2c(C(=O)NCCCN3CCOCC3)nn(-c3cccc(C(F)(F)F)c3)c2-c2ccccc2S1(=O)=O`, the EC50 was above 66.1 µM and the IC50 is above 66.1 µM.

For `CN1C2CCC1CC(O)C2` (centres undefined), the EC50 was above 1780 µM and the IC50 was above 1780 µM.

Regarding `O=C1CCCCC/C1=C\c1cccc(Cl)c1`, the EC50 was above 200 µM and the IC50 stood at 28.8 µM.

For the compound `CN(C)c1ccc(/C=C(\C#N)C(=O)O)cc1`, the EC50 is above 437 µM and the IC50 is 219 µM.

Turning to `CC1N(N2C(=O)CS(=O)(=O)C2C)C(=O)CS1(=O)=O` (centres undefined), the EC50 was above 200 µM and the IC50 is above 200 µM.

For the compound `O=C(O)/C=C/c1ccc[c]([Sb](=[O])([OH])[OH])c1`, the EC50 was 2.82 µM and the IC50 is above 200 µM.

Take `CCCNC(=O)N(CC)S(=O)(=O)c1ccc(Cl)cc1`: the outcome was inactive.

Regarding `COC1C=CC23c4cc5c(cc4COC2(O)CN(C)C3C1)OCO5` (centres undefined), the EC50 was above 550 µM and the IC50 is above 550 µM.

As to `Cc1ccccc1Nc1ccc([N+](=O)[O-])c2nonc12`, the EC50 is above 83.2 µM and the IC50 came to 33.1 µM.

Consider `C/C(=N\O)C(CN1CCCCC1)C(c1ccccc1)c1c(O)c2ccccc2oc1=O` (centres undefined), for which the EC50 is above 29.5 µM and the IC50 was above 29.5 µM.

Take `CC(=O)OCC1OC(OC(C)=O)C(Nc2ncc(-c3ccc(C)cc3)s2)C(OC(C)=O)C1OC(C)=O` (centres undefined): the EC50 was above 200 µM and the IC50 amounted to 13.2 µM.

For the compound `COc1ccc(/C=C/C(=O)c2sc(-c3cccnc3)nc2C)cc1`, the EC50 is above 21.4 µM and the IC50 is above 21.4 µM.

`CC(C)=CC[C@]12CCN(C)[C@H]1N(S(=O)(=O)c1ccccc1)c1ccccc12`: the EC50 was above 200 µM and the IC50 is 135 µM.

As for `c1ccc(SSc2ccc3ccccc3c2)cc1`, the EC50 is above 200 µM and the IC50 was determined as 9.33 µM.

Consider `COC(=O)N(C)C(C#N)CCc1ccccc1` (centres undefined), for which the EC50 was above 15.5 µM and the IC50 is above 15.5 µM.

On to `O=C1C2c3[nH]c4ccccc4c3C3CCCC3C2C(=O)N1c1ccccc1` (centres undefined), for which the result was inactive.

`[C-]#[O+].[C-]#[O+].[C-]#[O+].[Mo].c1ccc([PH+](CC[As](c2ccccc2)c2ccccc2)CC[As](c2ccccc2)c2ccccc2)cc1`: the result was inactive.

As to `O=S1(=O)OCCOS(=O)(=O)C1(I)I`, the EC50 is above 550 µM and the IC50 amounted to 123 µM.

Consider `NS(=O)(=O)c1ccc(Nc2c3ccccc3nc3c(C(=O)NCCO)cccc23)cc1`, for which the EC50 is above 200 µM and the IC50 worked out at 5.25 µM.

Turning to `COC(=O)/C=C1\SC2(OC1=Nc1ccccc1)C1CC3CC(C1)CC2C3` (centres undefined), the EC50 is above 200 µM and the concentration for half-maximal inhibition (IC50) was above 200 µM.

In the case of `Cn1cnc([N+](=O)[O-])c1Sc1nc2cc(Cl)c(F)cc2[nH]1`, the EC50 is above 8.32 µM and the IC50 turned out to be 3.09 µM.

In the case of `O=c1oc2ccccc2c(O)c1C(C/C(CCN1CCCC1)=N/O)c1ccccc1` (centres undefined), the EC50 was above 42.7 µM and the IC50 was above 42.7 µM.

On to `CCCCCC(=O)Nc1n[nH]nc1C#N`, for which the EC50 was above 200 µM and the IC50 was above 200 µM.

As to `Cc1nccc2c(C(=O)O)c(C(=O)O)[nH]c12`, the EC50 was above 170 µM and the IC50 is above 170 µM.

Regarding `CC(=O)OC1N(C(C)=O)C(SC23CC4CC(CC(C4)C2)C3)C(C)=CC1(C)OC(C)=O` (centres undefined), the EC50 was above 200 µM and the IC50 came to 126 µM.

In the case of `CC(C)(C)c1cc(C2NC(=O)NC2=O)cc(C(C)(C)C)c1O` (centres undefined), the EC50 was above 20 µM and the IC50 is above 20 µM.

For `O=C(O)CNC(=O)C(CSC(=O)OCC1c2ccccc2-c2ccccc21)NC(=O)CCC(NC(=O)OCC1c2ccccc2-c2ccccc21)C(=O)O` (centres undefined), the EC50 was above 200 µM and the IC50 amounted to 107 µM.

Consider `CNn1c(-c2ccc(C)cc2)n[nH]c1=O`, for which the EC50 is 49 µM and the IC50 was found to be 56.2 µM.

For `Cc1cccc(CC(=O)c2ccccc2)n1`, the EC50 was above 200 µM and the IC50 was found to be 53.7 µM.

For the compound `COc1ccc(NC(=O)CC(=O)n2nc(C)c(N=Nc3cccc(C)c3)c2C)cc1`, the EC50 was above 200 µM and the IC50 is above 200 µM.

As for `COC(=O)[C@@H]1CSC(=S)N1C(=O)C[C@H]1CC=CC[C@H]1CC(=O)Sc1ccccc1`, the result was inactive.

In the case of `OC1CCC(O)[C@H]2[C@@H]1[C@@H]1S[C@H]2c2ccccc21` (some centres undefined), the EC50 is above 200 µM and the IC50 was above 200 µM.

As to `COc1c(Cl)cc(C(=CCCCCN[C@H]2CC[C@@]3(C)[C@@H](CC[C@@H]4[C@@H]3CC[C@]3(C)[C@@H](C(C)CCCC(C)C)CC[C@@H]43)C2)c2cc(Cl)c(OC)c(C(=O)O)c2)cc1C(=O)O` (some centres undefined), the EC50 is above 200 µM and the IC50 is above 200 µM.

For the compound `C/C(C=C(C#N)C#N)=C\c1ccccc1`, the EC50 was above 97.7 µM and the concentration for half-maximal inhibition (IC50) worked out at 39.8 µM.

In the case of `CC(=O)OCC(OC(C)=O)C(OC(C)=O)C(C=NN(C(C)=O)S(=O)(=O)c1ccc(/C=C2\NC(=O)NC2=O)cc1)OC(C)=O` (centres undefined), the EC50 is above 200 µM and the IC50 was determined as 97.7 µM.

Turning to `Cc1ccc2c(c1N)C(=O)c1ccccc1C2=O`, the EC50 was above 200 µM and the IC50 is 123 µM.

For `CC(C)(C)C#CI1OC(=O)c2ccccc21`, the EC50 was above 200 µM and the IC50 was 2.14 µM.

For the compound `CCOC(=O)C(O)(CC1=NC(C(=O)OC)(C(=O)OC)C(c2cccc(C=O)c2)O1)C(=O)OCC` (centres undefined), the EC50 was above 200 µM and the IC50 was above 200 µM.

Consider `CC(=O)OC1OC2C(NC(=O)OC(C)(C)C)C1CC2(OCc1ccccc1)OCc1ccccc1` (centres undefined), for which the EC50 was above 28.2 µM and the IC50 is above 28.2 µM.

On to `CC(C)NC(=O)N(Nc1ccccc1)C(C)(C)C`, for which the EC50 is above 200 µM and the IC50 amounted to 110 µM.

`COc1ccc(/C=C2\C(=O)N(C(=O)c3ccc(NC(C)=O)cc3)N=C2C)cc1OC`: the EC50 was above 9.33 µM and the IC50 was above 9.33 µM.

For `Cc1cc(Br)c(N2C3=C(CC4=C2CCCC4=O)C(=O)CCC3)c(Br)c1`, the EC50 is above 100 µM and the IC50 amounted to 21.9 µM.

With `Nc1ncnc2c1ncn2C1CCC(=O)C1` (centres undefined), the EC50 was above 1150 µM and the IC50 amounted to 174 µM.

For `Cc1cn(C2CC(O[Si](C)(C)C(C)(C)C)C(CN(OC(=O)Oc3ccccc3)C(=O)Oc3ccccc3)O2)c(=O)[nH]c1=O` (centres undefined), the EC50 was above 200 µM and the IC50 was 10.2 µM.

Take `Cn1cnc([N+](=O)[O-])c1Sc1nncc2[nH]cnc12`: the EC50 is 46.8 µM and the IC50 is above 200 µM.

`COc1ccc(-c2oc(=O)c3ccccc3c2-c2ccccc2)cc1`: the EC50 is above 15.8 µM and the IC50 was above 15.8 µM.

With `CCCCCC(=O)Nc1nc[nH]c1C(N)=O`, the EC50 was above 200 µM and the IC50 is above 200 µM.

Turning to `COc1ccc(/C=C2/SC(c3ccc(Cl)cc3)N(NC(=O)CCCCCCCCC(=O)NN3C(=O)/C(=C\c4ccc(OC)c(OC)c4)SC3c3ccc(Cl)cc3)C2=O)cc1OC` (centres undefined), the EC50 was 67.6 µM and the IC50 stood at 182 µM.

Turning to `Cc1ccc(S(=O)(=O)ON2C(=O)c3cccc4cc([N+](=O)[O-])cc(c34)C2=O)cc1`, the EC50 is above 63.1 µM and the IC50 is above 63.1 µM.

On to `CCOC(=O)C(=Cc1ccco1)C(=O)OCC`, for which the EC50 was above 151 µM and the IC50 stood at 85.1 µM.

Regarding `COc1ccc(S(=O)(=O)O)cc1N=N/C(=N/Nc1cc(S(=O)(=O)O)ccc1OC)C(=O)Nc1ccccc1`, the outcome was inactive.

Turning to `CC1CC/C(=C\c2ccc(N(C)C)cc2)C2=C1C(c1ccc(N(C)C)cc1)NC(=S)N2` (centres undefined), the EC50 is above 100 µM and the IC50 is above 100 µM.

On to `CC(=O)Oc1cc(S(=O)(=O)Nc2n[nH]c(Nc3ccc(C)cc3)n2)c(S)cc1Cl`, for which the EC50 was 155 µM and the IC50 worked out at 263 µM.

For the compound `Cc1cc2n([O-])cccc-2[n+](=O)c1`, the EC50 was above 200 µM and the IC50 is above 200 µM.

For `CCOC(=O)CNC(=O)c1ccccc1SC(=O)CCCC[n+]1ccccc1`, the EC50 is above 20 µM and the IC50 stood at 0.363 µM.

For `Nc1onc2c1Cc1c(noc1N)-c1ccccc1-2`, the EC50 was above 200 µM and the IC50 is 166 µM.

On to `OC1CN=C2c3ccccc3C(O)(c3ccc(Cl)cc3)N2C1` (centres undefined), for which the EC50 was above 200 µM and the IC50 stood at 44.7 µM.

Turning to `COC(=O)C1=C(O)C(O)=C(C(=O)OC)CC1`, the EC50 was 468 µM and the IC50 was found to be 912 µM.

For `O=C1CC=CN1CCn1c(=S)[nH]c2ccccc21`, the EC50 was above 501 µM and the IC50 is above 501 µM.

As for `O=c1ccc2c([N+](=O)[O-])cc([N+](=O)[O-])c(O)c2[nH]1`, the outcome was inactive.

In the case of `COc1c2c(cc3ccc(=O)oc13)C(Cl)C(Cl)O2` (centres undefined), the EC50 was above 77.6 µM and the IC50 was determined as 21.9 µM.

With `Cc1ccc(N=Nc2c(O)c(S(=O)(=O)O)cc3cc(S(=O)(=O)O)ccc23)c(C)c1`, the outcome was inactive.

For the compound `O=C1OC(CC(=O)c2ccc(Cl)c(Cl)c2)C(Cl)=C1Cl` (centres undefined), the EC50 is above 75.9 µM and the IC50 is above 75.9 µM.

The record behind these values is PubChem BioAssay AID179 (DTP/NCI, 2004).
